Columns and labels:
Type in all cases: cell-based
[1] = test system: VCAM-1 on human LECs; assay: Immunohistochemical expression of VCAM-1 on cultured human LECs
Experimental: Using an indirect immunohistochemical technique, the inventors examined the effects of the supernatants of culture medium of two kinds of carcinoma cells, MDA-MB-231 and MCF-7, on the expression of adhesion molecules such as E-selectin, P-selectin, vascular cell adhesion molecule (VCAM)-1, and intercellular adhesion molecule (ICAM)-1 on the human LECs. The carcinoma cells were plated in DMEM/F12 with 10% FBS, which was replaced the following day with DMEM/F12 with 3% FBS, and then collected after overnight culture. The collected solution was centrifuged at 2,000 rpm for 5 min. at 4° C. To examine the effects of the supernatants on the expression of the adhesion molecules on the human LECs, 1 mL of each collected solution was added to starvation culture medium, EBM-2 with 3% FBS of the human LECs, and then stimulated for 48 hrs. on the cells. In some experiments, the supernatant solutions at different concentrations (1/100 or 1/10,000 dilution) were constructed with appropriate volumes of DMEM/F12 with 3% FBS.
Indirect immunohistochemical studies were performed on the cultured LECs seeded or glass slides coated with type I collagen, and then the cells were fixed with 3.3% formalin in phosphate-buffered saline solution (PBS), for 20 min. at room temperature. The cells were washed three times with PBS, and then incubated overnight at 4° C. with primary polyclonal human antisera to E-selectin/CD62E (dilution 10 μg/mL, available from R&D Systems, US), P-selectin/CD62P (dilution 10 μg/mL, available from R&D Systems, US), VCAM-1/CD106 (dilution 10 μg/mL, available from R&D Systems, US), and ICAM-1/CD54 (dilution 10 μg/mL, available from R&D Systems, US).
Before primary staining, the cultured cells were permeabilized with 0.1% TRITON-X. After washing three times in PBS, the cells were incubated for 1 hr. at room temperature with 1:100 diluted ALEXA FLUOR 488 donkey anti-mouse IgG (available from Invitrogen, US). The nuclei of cultured cells were counter-stained and mounted with PROLONG GOLD antifade reagent with 4′-6-diamidine-2-phenylindole (DAPI) (available from Molecular Probes, US), examined by a fluorescent microscope (Leica, Switzerland), and photographed.
Immunohistochemistry was performed on the cultured human LECs or the fresh-frozen SLNs isolated from the breast cancer patients. In brief, the cultured LECs were fixed with 10% formalin in the phosphate-buffered saline solution (PBS) at room temperature. The cells were incubated for 4 hrs. at room temperature with primary polyclonal human antisera platelet-endothelial cell adhesion molecule (PECAM)-1 (dilution 1:100, available from BD Biosciences, US), lymphatic vessel endothelial hyaluronan receptor (LYVE)-1 (dilution 1:50, available from RELIATech, Germany), PROX-1 (dilution 1:50, available from AngioBio, US), podoplanin (dilution 1:50, available from AngioBio, US), vascular endothelium growth factor receptor 3 (VEGF R3) (dilution 1:50, available from Santa Cruz, US), E-selectin/CD62E (dilution 1:50, available from R&D systems, US), P-selectin/CD62P (dilution 1:50, available from R&D systems, US), vascular cell adhesion molecule (VCAM)-1/CD106 (dilution 1:50, available from R&D systems, US), and intercellular adhesion molecule (ICAM)-1/CD54 (dilution 1:50, available from R&D systems, US). Before the staining, permeabilization of the cultured cells with 0.1% TRITON-X was performed. Then, the cells were stained using the following antibodies: ALEXA FLUOR 488 chicken anti-rabbit IgG or ALEXA FLUOR 488 donkey anti-mouse IgG (available from Invitrogen, US). The nuclei of the cultured cells were counter-stained and mounted with ProLong Gold antifade reagent with 4′-6-diamidine-2-phenylindole (DAPI) (available from Molecular Probes, US). The cultured cells were examined by a fluorescent microscope (available from Leica, Germany) and photographed. […]

[2] = test system: ICAM-1 protein in human LECs; assay: Western blot analysis of ICAM-1 protein in human LECs; conditions: 18 hrs.-stimulation of 10 ng/mL CCL2
Experimental: Western blot analysis was performed to quantitatively evaluate the CCL2-mediated ICAM-1 expression on the cultured human LECs. The cells were dissolved in M-PER (Mammalian Protein Extraction Reagent available from Thermo Fisher Scientific Inc., US) and centrifuged at 14,000 r.p.m. for 10 min. A 15 μg sample of the total cell lysate was resolved in SDS sample buffer for sodium dodecyl sulfate-polyacrylamide gel electrophoresis (SDS-PAGE) and transferred to an polyvinylidene difluoride (PVDF) membrane (available from Atto Corporation, Japan), where it was incubated for 45 min The membrane was probed with the anti-ICAM-1 antiserum (dilution 1:1000, available from Cell Signaling Technology Inc., US) and then incubated with anti-rabbit immunoglobulin G (IgG) horseradish peroxidase conjugated antibody. The same membrane was reprobed with monoclonal anti-actin antibody (available from Santa Cruz Biotechnology Inc., US) and then visualized with an ECL-Western blotting detection system (available from Amersham Bioscience Inc., UK).

[3] = test system: ICAM-1 on human LECs; assay: Immunohistochemical expression of ICAM-1 on cultured human LECs
[4] = 4 hrs-stimulation of 10 ng/mL CCL2
[5] = 18 hrs.-stimulation with 10 ng/mL chemokine

## CCL2: chemokine CCL2
[1]; [4]
  expression of VCAM-1 on human LECs: no or little expression
[1]; [5]
  expression of VCAM-1 on human LECs: Little or no expression
[2]
  expression of ICAM-1 protein: significant expression
[3]; 10 ng/mL CCL2, stimulation time of 18 hrs. only
  intensity of the immunoreactivity for ICAM-1: significantly increased
[3]; 10 ng/mL CCL2 vs negative control, p<0.01, n=5
  contrast-density of ICAM-1 staining (mean density/pixel): increases significantly
[3]; [4]
  expression of ICAM-1 on human LECs: marked expression
[3]; [5]
  expression of ICAM-1 on human LECs: marked expression
[3]; 18 hrs.-stimulation, 10 pg/mL CCL2
  expression of ICAM-1 on human LECs: slight, but significant, expression
[3]; 18 hrs.-stimulation, 1 ng/mL or 10 ng/mL of CCL2
  expression of ICAM-1 on human LECs: marked expression

— US20140199714A1, “METHOD FOR DETECTING CANCER CELLS METASTASIZING INTO SENTINEL LYMPH NODE” (SHINSHU UNIVERSITY, priority 2008, published 2014)
